Patent US6528488B2, “Method for treating cystic fibrosis” (priority 1999, dated 2003)
Several values for one entry are separate records, joined by “and”; a condition that tells them apart may be missing. Equal values may be shown once. Read-outs that look alike come from different tables or passages of the source. Ends that are not written are not given here.

Columns and labels:
P. aeruginosa [1] = assay type: cell-based; conditions: ATCC strains and clinical CF isolates of Table 2 (assays D and A)
Description: These Pseudomonas clinical isolates, as well as a variety of Pseudomonas ATCC strains, were tested for their susceptibility to the histatin derivative having the sequence Ala-Lys-Arg-His-His-Gly-Tyr-Lys-Arg-Lys-Phe- His-NH2 (SEQ ID NO: 1) (P-113). P-113 was used at a concentration of 100 μg/mL to […]. P. aeruginosa ATCC 27853 was used as a control in each assay. The ATCC strains were tested using Direct Antibacterial Assay SOP 98-020; the clinical isolates were tested using either the Direct Antibacterial Assay (D) or Alamar Blue Antimicrobial/Antifungal Assay SOP 96-018 (A).
The Direct Assay is an MIC test in microtiter plate format in which cells resuspended in LM broth are exposed to two-fold dilutions of P-113, and the cell density is determined directly after an overnight incubation. Cells are inoculated onto a blood agar plate and incubated for 18 hours at 37° C., and then stored at room temperature for use later in the day. Cells are resuspended and diluted based on the optical density to a final concentration of 5×10^5 per ml in LM broth containing two-fold dilutions of antibiotics. After 16-18 hours at 37° C., the optical density is measured with a Molecular Devices Thermonix plate reader. A reading of ˜0.3 over background is observed for cells grown in the absence of drug. Readings<0.01 correlated with no visible growth. […]

P. aeruginosa [2] = assay type: cell-based; conditions: for cfu/plate: replicate plates; for activity against P. aeruginosa: Example 5, FIG. 4; for efficacy in killing P. aeruginosa: Table 3, summary in words
Description: The standard procedure used for testing activity was incubation of the bacterial strain with the peptide for one hour at 37° C., followed by plating at two dilutions. Peptides having the following amino acid sequences (including P-113, as in Example 4) were tested for activity against P. aeruginosa under the conditions described above: P-113 and […] were tested against P. aeruginosa under the conditions described in the preceding examples. The dilution values were as follows: expected-2000 cfu/plate (in broth) from dilution A. A=1/2.5×dilution; plate 50 μl. B=1/2.5×dilution; plate 25 μl.

For “AKRHHGYKRKFH-NH2 [P-113, Ala-Lys-Arg-His-His-Gly-Tyr-Lys-Arg-Lys-Phe- His-NH2]”, the “effectiveness against the Pseudomonas strains tested” value (P. aeruginosa [1]) was “effective against nearly all of the Pseudomonas strains tested”, the cfu/plate (P. aeruginosa [2]; 5 μM as printed, second P-113 5 μM line (after His-5 0.5 μM), dilution A) was 133 cfu/plate and 170 cfu/plate and the cfu/plate (P. aeruginosa [2]; 5 μM as printed, second P-113 5 μM line (after His-5 0.5 μM), dilution B) was 88 cfu/plate and 85 cfu/plate. For the same compound, the cfu/plate (P. aeruginosa [2]; 50 μM, dilution A) was 0 cfu/plate, the cfu/plate (P. aeruginosa [2]; 200 μM, dilution A) was 0 cfu/plate and the cfu/plate (P. aeruginosa [2]; 200 μM, dilution B) was 0 cfu/plate. The “activity against P. aeruginosa” value (P. aeruginosa [2]) was “very active” and the “efficacy in killing P. aeruginosa” value (P. aeruginosa [2]) was “greater efficacy than His-5”.

“Ala-Gln-Gln-His-His-Gly-Tyr- Lys-Gln-Gln-Phe-His-NH2 (AQQHHGYKQQFH-NH2) [P-113 Q2.3.9.10]” was tested, and the “activity against P. aeruginosa” value (P. aeruginosa [2]) was “inactive”.

“Ala-Lys-Arg-Leu- Leu-Gly-Tyr-Lys-Arg-Lys-Phe-Leu-NH2 (AKRLLGYKRKFL-NH2) [P-113 L4.5.12]” was tested, and the “activity against P. aeruginosa” value (P. aeruginosa [2]) was “also active”.

For “Ala-Lys-Gln-His-His-Gly- Tyr-Lys-Gln-Lys-Phe-His-NH2 (AKQHHGYKQKFH-NH2) [P-113 Q3.9]”, the “activity against P. aeruginosa” value (P. aeruginosa [2]) was “also active”.

With “Ala-Gln-Arg-His-His- Gly-Tyr-Lys-Arg-Gln-Phe-His-NH2 (AQRHHGYKRQFH-NH2) [P-113 Q2.10]” the “activity against P. aeruginosa” value (P. aeruginosa [2]) was “very active”.

For C[C@H](NC(=O)[C@H](Cc1c[nH]cn1)NC(=O)[C@H](CO)NC(=O)[C@@H](N)CC(=O)O)C(=O)N[C@@H](CCCCN)C(=O)N[C@@H](CCCNC(=N)N)C(=O)N[C@@H](Cc1c[nH]cn1)C(=O)N[C@@H](Cc1c[nH]cn1)C(=O)NCC(=O)N[C@@H](Cc1ccc(O)cc1)C(=O)N[C@@H](CCCCN)C(=O)N[C@@H](CCCNC(=N)N)C(=O)N[C@@H](CCCCN)C(=O)N[C@@H](Cc1ccccc1)C(=O)N[C@@H](Cc1c[nH]cn1)C(=O)N[C@@H](CCC(=O)O)C(=O)N[C@@H](CCCCN)C(=O)N[C@@H](Cc1c[nH]cn1)C(=O)N[C@@H](Cc1c[nH]cn1)C(=O)N[C@@H](CO)C(=O)N[C@@H](Cc1c[nH]cn1)C(=O)N[C@@H](CCCNC(=N)N)C(=O)NCC(=O)N[C@@H](Cc1ccc(O)cc1)C(=O)O [His-5, histatin 5, reference compound], the cfu/plate (P. aeruginosa [2]; 0.5 μM, dilution A) was 150 cfu/plate and 164 cfu/plate, the cfu/plate (P. aeruginosa [2]; 0.5 μM, dilution B) was 90 cfu/plate and 96 cfu/plate and the cfu/plate (P. aeruginosa [2]; 5 μM, dilution A) was 143 cfu/plate and 159 cfu/plate. The cfu/plate (P. aeruginosa [2]; 5 μM, dilution B) was 73 cfu/plate and 68 cfu/plate, the cfu/plate (P. aeruginosa [2]; 200 μM, dilution A) was 0 cfu/plate and the cfu/plate (P. aeruginosa [2]; 200 μM, dilution B) was 0 cfu/plate. For the same compound, the “efficacy in killing P. aeruginosa” value (P. aeruginosa [2]) was “effective in killing these bacteria”.

For “Ala-Lys-Arg- Tyr-Tyr-Gly-Tyr-Lys-Arg-Lys-Phe-Tyr-NH2 (AKRYYGYKRKFY-NH2) [P-113 Y4.5.12]”, the “activity against P. aeruginosa” value (P. aeruginosa [2]) was “very active”.
